“Also recorded” adds a separate entry of the source.
Experiments:
[1] = test system: anti-HLA class II mAb HT214.F2.H6.4F4; assay: ELISA binding of synthetic peptide to mAb HT214.F2.H6.4F4; settings: ELISA and inhibition assay
Method: (§1) Peptide mimics of HLA class II antigen can be isolated by panning phage display peptide libraries with anti-HLA class II antigen mAbs. Anti-HLA class II antigen mAbs can be used to isolate phage that display antibody reactive peptides. After phage panning, the binding ability of isolated phage colonies to anti-HLA class II antigen mAbs is tested with immunoscreening and further confirmed by enzyme-linked immunosorbent assay (ELISA). Anti-HLA class II antigen antibody reactive phage clone and the same phage without displaying peptides, can be utilized as a positive and a negative controls respectively in the immunoscreening and ELISA. In the positive phage clones, the DNA inserts that encode the antibody reactive peptides can be sequenced. Peptides can be synthesized based on the sequences of the DNA inserts. The synthesized peptides are tested in ELISA to determine their binding reactivity with corresponding anti-HLA class II antigen mAbs. The ability of synthetic peptides to inhibit the binding of anti-HLA class II antigen mAbs to HLA class II antigen can be tested in an inhibition assay with HLA class II antigen-positive cell lines. The synthetic peptides that inhibit or block the binding of anti-HLA class II antigen mAbs to HLA class II antigen can be tested as active immunotherapy candidates. […]

[2] = test system: mAb TP25.99, which recognizes HLA class I antigens; assay: Inhibition of binding of control mAb TP25.99 (specificity control); settings: FIG. 1E
Method: This Example illustrates the ability of the peptide mimics to bind to anti-HLA class II mAbs. The synthetic peptides were tested by ELISA for their ability to bind to anti-HLA class II mAb H2-27.F5.2G4, HT214.F2.H6.4F4, LGII612.14 and TP117.6. JH1 and JHT1 were also tested for their ability to inhibit the binding of anti-HLA class II mAb H2-27.F5.2G4 (FIG. 1B), HT214.F2.H6.4F4 (FIG. 1A), LGII612.14 (FIG. 1C) and TP117.6 (FIG. 1D) to HLA class II bearing cells LGL2 cells. H2-27.F5.2G4, LGII-612.14 and HT214.F2.H6.4F4 are monoclonal antibodies (mAb) that recognize HLA class II antigens. TP25.99 is a monoclonal antibody (mAb) which recognizes HLA class I antigens and is used in FIG. 1E as a control. LG2 is a human lymphoid cell line which expresses HLA class II antigens on its cell surface. P763.74 is a High Molecular Weight-Melanoma Associated Antigen (HMW-MAA) peptide mimic isolated using the anti-HMW-MAA mAb 763.74 and is used in FIGS. 1A-1C as a control peptide. The peptides were considered to be mimics of HLA class II antigens if they could inhibit the binding of any of the four anti-HLA class II mAb (H2-27, F5.2G4, HT214.F2.H6.4F4, LGII612.14 and TP117.6) to HLA class II bearing cells.

[3] = test system: mAb TP117.6 binding to HLA class II antigens on LG2 cells; assay: Inhibition of binding of mAb TP117.6 to HLA class II bearing LG2 cells; set-up: species or system human; settings: FIG. 1D
Method: as §1

HLA class II antigens [4] = assay: Immunization of BALB/c mice, serum reactivity with HLA class II antigens; assay type: in vivo; settings: peptide conjugated to KLH with Freund's adjuvant, sera day 35, FIG. 2
Excerpt: (§2) HLA-DR transgenic mice express HLA-DR molecules. The promoter that is used to drive DR expression in the transgenic mice is H2 Ea promoter (pDOI-5 expression vector). This vector directs the expression of cDNA to cells which normally display class II molecules. HLA-DR transgenic mice were utilized as a model to test whether HLA class II peptide mimics can break tolerance to self-antigen. HLA-DR transgenic mice were immunized with peptide JH1 and JHT1 conjugated to keyhole limpet hemocyanin (KLH) and mixed with complete Freund's adjuvant for priming and with incomplete Freund's adjuvant for boosting. […] These experiments utilized LG2 cells as described in Example 2 and MOLT-4 cells. […] It was used as a control. Sera used for testing reactivity with HLA class II antigens was harvested on day 35 from BABL/c mice for FIGS. 2 and 4 and on day 70 from HLA-DR transgenic mice in FIG. 3. For FIGS. 2, 3 and 4, preimmune serum was harvested one week before the first immunization and was used as a control. […] One intradermal injection with HLA class II bearing LG2 cells enhanced the immune response to HLA class II antigens.

[5] = Side effects in immunized mice; assay type: in vivo; settings: peptide-KLH, Freund's adjuvant
Excerpt: as §2

[6] = test system: immunizing peptides; HLA class II; assay: Antibody titers in sera of immunized mice; assay type: in vivo; settings: peptide-KLH, Freund's adjuvant; FIGS. 2-4
Excerpt: as §2

MOLT-4 lymphoid cells = assay: Flow cytometry of immune sera with control MOLT-4 lymphoid cells; assay type: cell-based, human; settings: sera of immunized BALB/c mice, day 35; MOLT-4 does not express HLA class II; FIG. 4B
Excerpt: as §2

HLA class II antigens [7] = assay: Immunization of HLA-DR transgenic mice, breaking of self-tolerance; assay type: in vivo; settings: peptide conjugated to KLH with Freund's adjuvant, sera day 70, FIG. 3
Excerpt: as §2

[8] = test system: HLA class II antigens of LG2 lymphoid cells; assay: Flow cytometry of immune sera with LG2 lymphoid cells; assay type: cell-based, human; settings: sera of immunized BALB/c mice, day 35; FIG. 4A
Excerpt: as §2

[9] = test system: mAb HT214.F2.H6.4F4 binding to HLA class II antigens on LG2 cells; assay: Inhibition of binding of mAb HT214.F2.H6.4F4 to HLA class II bearing LG2 cells; set-up: species or system human; settings: FIG. 1A; negative control peptide 673.74
Method: as §1

[10] = test system: mAb LGII-612.14 binding to HLA class II antigens on LG2 cells; assay: Inhibition of binding of mAb LGII-612.14 to HLA class II bearing LG2 cells; set-up: species or system human; settings: FIG. 1C; negative control peptide 673.74
Method: as §1

[11] = test system: anti-HLA class II mAb LGII-612.14; assay: ELISA binding of synthetic peptide to mAb LGII-612.14; settings: ELISA and inhibition assay
Method: as §1

[12] = test system: mAb H2-27.F5.2G4 binding to HLA class II antigen on LG2 cells; assay: Inhibition of binding of mAb H2-27.F5.2G4 to HLA class II bearing LG2 cells; set-up: species or system human; settings: FIG. 1B; negative control peptide 673.74
Method: as §1

[13] = test system: anti-HLA class II mAb H2-27.F5.2G4; assay: ELISA binding of synthetic peptide to mAb H2-27.F5.2G4; settings: ELISA and inhibition assay
Method: as §1

KCPLDPKGLNCV (unknown synthesized peptide JHT1) [HLA class II peptide mimic isolated by panning with mAb HT214.F2.H6.4F4]
reaction with the combining site of mAb HT214.F2.H6.4F4 [1]: reacted with the combining sites | inhibition of binding of mAb TP25.99 (anti-HLA class I, control) [2]: do not inhibit binding | inhibition of binding of mAb TP117.6 to HLA class II antigens on LG2 cells [3]: can inhibit binding | humoral immune response against HLA class II antigens (HLA class II antigens [4]): elicits a humoral immune response against HLA class II antigens; also recorded: also induced a humoral response against HLA class II antigens | side effects in immunized mice [5]: No obvious side effects | anti-HLA class II antibodies in sera of immunized mice [6]: detected in the sera of immunized mice at lower titers | antibodies to the immunizing peptides in sera of immunized mice [6]: high-titer antibodies to the immunizing peptides were detected | reactivity of immune sera with control MOLT-4 lymphoid cells (flow cytometry) (MOLT-4 lymphoid cells): lack of reactivity | breaking self-tolerance, humoral immune response against HLA class II antigens (HLA class II antigens [7]): can break self-tolerance and elicit a humoral immune response against HLA class II antigens; also recorded: can also break self-tolerance | reactivity of immune sera with HLA class II antigens of LG2 lymphoid cells (flow cytometry) [8]: reactivity | inhibition of binding of mAb HT214.F2.H6.4F4 to HLA class II antigens on LG2 cells [9]: inhibits binding of mAb HT214.F2.H6.4F4 to HLA class II antigens to LG2 cells in a dose-dependent manner

SCLRAGGWVCCK (unknown synthesized peptide JH1) [HLA class II peptide mimic isolated by panning phage display libraries with mAb H2-27.F5.2G4 and LGII-612.14]
inhibition of binding of mAb TP25.99 (anti-HLA class I, control) [2]: do not inhibit binding | inhibition of binding of mAb TP117.6 to HLA class II antigens on LG2 cells [3]: can inhibit binding | humoral immune response against HLA class II antigens (HLA class II antigens [4]): elicits a humoral immune response against HLA class II antigens; also recorded: induced a humoral response against HLA class II antigens | side effects in immunized mice [5]: No obvious side effects | anti-HLA class II antibodies in sera of immunized mice [6]: detected in the sera of immunized mice at lower titers | antibodies to the immunizing peptides in sera of immunized mice [6]: high-titer antibodies to the immunizing peptides were detected | reactivity of immune sera with control MOLT-4 lymphoid cells (flow cytometry) (MOLT-4 lymphoid cells): lack of reactivity | breaking self-tolerance, humoral immune response against HLA class II antigens (HLA class II antigens [7]): can break self-tolerance and elicit a humoral immune response against HLA class II antigens | inhibition of binding of mAb LGII-612.14 to HLA class II antigens on LG2 cells [10]: inhibits binding of mAb LGII-612.14 to HLA class II antigens on LG2 cells in a dose-dependent manner | reactivity of immune sera with HLA class II antigens of LG2 lymphoid cells (flow cytometry) [8]: reactivity | reaction with the combining site of mAb LGII-612.14 [11]: reacted with the combining sites | inhibition of binding of mAb H2-27.F5.2G4 to HLA class II antigen on LG2 cells [12]: inhibits binding of mAb H2-27.F5.2G4 to HLA class II antigen on LG2 cells in a dose-dependant manner | reaction with the combining site of mAb H2-27.F5.2G4 [13]: reacted with the combining sites

— patent publication US7592421B1, “HLA class II peptide mimics” (Health Research, Inc., priority 2003, dated 2009)
